Test results published in article PMC13185819, “De Novo Multi‐Mechanism Antimicrobial Peptide Design via Multimodal Deep Learning” (Advanced Science, 2026).
Values after ≈ are worked out from the molar mass of the structure shown. Residues, ends and D or L forms follow the SMILES beside them.

Legend:
[1] = tested on: 25 strains of ESKAPE MDROs; type: cell-based; conditions: lowest value over gram-negative strains
Method in brief: (§1)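 Broth microdilution per CLSI in Mueller–Hinton broth with serial twofold peptide dilutions. Inoculum from overnight 37°C colonies adjusted to McFarland 0.5 and diluted to 1 × 10^6 CFU/mL before mixing 1:1 with peptide. Three independent replicates.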

[2] = tested on: intact or abraded skin of mice; assay: Mouse skin tolerance test; type: in vivo, C57BL/6J mice; conditions: for skin irritation or pathology at 72 h post-treatment: shaved intact and abraded skin, 10 µL of 150 mg/mL
Procedure: For the skin local safety study, the intact or abraded skin of the mice was treated once with antimicrobial peptides QLX‐3DV‐1, QLX‐3DV‐2, or water. In brief, ten‐week‐old female C57BL/6J mice (n = 8 for each group) were anesthetized using isoflurane and administered buprenorphine as an analgesic at 0.1 mg/kg intraperitoneally. After removing the back hair of the mice, the skin on the back of the mice in the scratch group was sanded with 60‐grit sandpaper until the skin oozed blood. The intact skin group received no additional treatment except shaving. 10 µL QLX‐3DV‐1 and QLX‐3DV‐2 (150 mg/mL) or water was applied uniformly over the intact or abraded skin to assess the acute dermal toxicity. Groups without any addition served as untreated controls. Weight changes were recorded over 72 h. Histopathological characteristics of treated skin detected by H&E staining on the third day.

mice = assay: Systemic safety, intraperitoneal injection; type: in vivo, C57BL/6J mice; conditions: for survival rate over 96 h: intraperitoneal injection, 60 mg/kg, n = 8; for hepatorenal toxicity (H&E of liver and kidney): intraperitoneal, 40 mg/kg, 12 h
Procedure: The 10‐week‐old female C57BL/6J mice were randomly divided into three groups (n = 8 for each group). […] Mouse survival was monitored for 96 h. For pathologic analysis, mouse liver and kidneys were obtained by surgery for hematoxylin‐eosin (HE) staining after treatment with 40 mg/kg QLX‐3DV‐1 and QLX‐3DV‐2 for 12 h.

[3] = tested on: human red blood cells (hRBCs); assay: Hemolysis assay; type: cell-based; conditions: human red blood cells 8% (v/v) in PBS pH 7.4, 1 h, 37°C, absorbance 570 nm; linear interpolation
Procedure: Human red blood cells (hRBCs) were purchased from Xiamen Immocell Biotechnology Co., Ltd. For the hemolysis test, fresh human red blood cells (hRBCs) were washed three times with PBS (35 mM phosphate buffer, 0.15 M NaCl, pH 7.4) by centrifugation for 5 min at 1000 × g and resuspended in PBS. Then, 50 µL peptide solutions (serial twofold dilutions in PBS) were added to 100 µL of hRBC suspension [8% (v/v) in final] in PBS and incubated for 1 h at 37°C. Samples were centrifuged at 1000 × g for 5 min, and hemoglobin release was monitored by measuring the supernatant absorbance at 570 nm in a flat‐bottom 96‐well plate (Servicebio). hRBCs in PBS or 0.1% Triton X‐100 were used as the negative and positive controls, respectively.

K. pneumoniae 7713 = type: cell-based
Method in brief: as §1

S. aureus ATCC33592 = type: cell-based
Method in brief: as §1

E. faecium 21 = type: cell-based
Method in brief: as §1

E. faecium 1042 = type: cell-based
Method in brief: as §1

E.coli CMCC44102 = type: cell-based
Method in brief: as §1

S. aureus CMCC26003 = type: cell-based
Method in brief: as §1

S. aureus CICC25138 = type: cell-based
Method in brief: as §1

E.coli 208 = type: cell-based
Method in brief: as §1

E.coli 110 = type: cell-based
Method in brief: as §1

Row | Compound | MIC against gram-negative strains, as low as [1] | Gross pathology findings (Number of mice) ([2]; mouse, in vivo) | Histopathological findings, Fibrosis in the dermis (Number of mice) ([2]; mouse, in vivo) | Histopathological findings, Lymphohistiocytic infiltration in the dermis (Number of mice) ([2]; mouse, in vivo) | Skin irritation, Erythema formation (Number of mice) ([2]; mouse, in vivo) | skin irritation or pathology at 72 h post-treatment [2] | survival rate over 96 h (mice) | hepatorenal toxicity (H&E of liver and kidney) (mice) | Skin irritation, Edema formation (Number of mice) ([2]; mouse, in vivo) | 25% hemolytic concentration (HC25) [3] | MIC (μg/mL) K. pneumoniae 7713 (K. pneumoniae 7713) | MIC (μg/mL) S. aureus ATCC33592 (S. aureus ATCC33592) | MIC (μg/mL) E. faecium 21 (E. faecium 21) | MIC (μg/mL) E. faecium 1042 (E. faecium 1042) | MIC (μg/mL) E.coli CMCC44102 (E.coli CMCC44102) | MIC (μg/mL) S. aureus CMCC26003 (S. aureus CMCC26003) | MIC (μg/mL) S. aureus CICC25138 (S. aureus CICC25138) | MIC (μg/mL) E.coli 208 (E.coli 208) | MIC (μg/mL) E.coli 110 (E.coli 110)
1 | CC[C@H](C)[C@H](NC(=O)[C@H](CCCCN)NC(=O)[C@H](Cc1c[nH]c2ccccc12)NC(=O)[C@@H](N)CCCCN)C(=O)N[C@@H](CCCCN)C(=O)N[C@@H](Cc1c[nH]c2ccccc12)C(=O)N1CCC[C@H]1C(=O)N[C@@H](CO)C(=O)N[C@@H](CCCNC(=N)N)C(=O)N[C@@H](Cc1c[nH]c2ccccc12)C(=O)N[C@@H](Cc1ccccc1)C(=O)N[C@@H](CCCNC(=N)N)C(=O)N[C@@H](CCCCN)C(=O)N[C@@H](CC(C)C)C(N)=O [QLX-3DV-1] (H-KWKIKWPSRWFRKL-NH2) | 4 µg/mL (≈ 2.04 µM) | 0 / 8 | 0 / 8 | 0 / 8 | 0 / 8 | no signs of skin irritation or pathology | 100% | no significant hepatorenal toxicity |  |  |  |  |  |  |  |  |  |  | 
2 | CC[C@H](C)[C@H](NC(=O)[C@H](CCCCN)NC(=O)[C@H](Cc1c[nH]c2ccccc12)NC(=O)[C@@H](N)CCCCN)C(=O)N[C@@H](CCCCN)C(=O)N[C@@H](Cc1c[nH]c2ccccc12)C(=O)N1CCC[C@H]1C(=O)N[C@H](C(=O)N[C@@H](CCCNC(=N)N)C(=O)N[C@@H](Cc1c[nH]c2ccccc12)C(=O)N[C@@H](Cc1ccccc1)C(=O)N[C@@H](CCCNC(=N)N)C(=O)N[C@@H](CCCCN)C(=O)N[C@@H](CC(C)C)C(N)=O)C(C)C [QLX-3DV-2] (H-KWKIKWPVRWFRKL-NH2) | 4 µg/mL (≈ 2.03 µM) | 0 / 8 | 0 / 8 | 0 / 8 | 0 / 8 | no signs of skin irritation or pathology |  | no significant hepatorenal toxicity | 0 / 8 |  |  |  |  |  |  |  |  |  | 
3 | CC[C@H](C)[C@H](NC(=O)[C@H](CCSC)NC(=O)[C@H](Cc1c[nH]c2ccccc12)NC(=O)[C@@H](N)CCCCN)C(=O)N[C@@H](CCCCN)C(=O)N[C@@H](Cc1c[nH]c2ccccc12)C(=O)N1CCC[C@H]1C(=O)N[C@@H](CO)C(=O)N[C@@H](CC(N)=O)C(=O)N[C@@H](Cc1c[nH]c2ccccc12)C(=O)N[C@@H](Cc1ccccc1)C(=O)N[C@H](C(=O)N[C@@H](CCSC)C(=O)N[C@@H](CC(C)C)C(N)=O)[C@@H](C)O [QLX-227-1] (H-KWMIKWPSNWFTML-NH2) |  |  |  |  |  |  |  |  |  | 100.92 µg/mL | 64 µg/mL (≈ 34.3 µM) | 64 µg/mL (≈ 34.3 µM) | 16 µg/mL (≈ 8.57 µM) | 32 µg/mL (≈ 17.1 µM) | 32 µg/mL (≈ 17.1 µM) | 32 µg/mL (≈ 17.1 µM) | 64 µg/mL (≈ 34.3 µM) | 16 µg/mL (≈ 8.57 µM) | 32 µg/mL (≈ 17.1 µM)
4 | CC(=O)N[C@@H](CC(C)C)C(=O)N[C@@H](CCCCN)C(=O)N[C@@H](CCCNC(=N)N)C(=O)N[C@H](C(=O)N[C@@H](Cc1c[nH]c2ccccc12)C(=O)N[C@@H](CCCCN)C(=O)N[C@@H](CCCNC(=N)N)C(=O)N[C@H](C(=O)N[C@@H](Cc1ccccc1)C(=O)N[C@@H](CCCCN)C(=O)N[C@@H](CC(C)C)C(=O)N[C@@H](CC(C)C)C(=O)N[C@@H](CCCCN)C(=O)N[C@@H](CCCNC(=N)N)C(=O)N[C@@H](Cc1ccc(O)cc1)C(=O)N[C@@H](Cc1c[nH]c2ccccc12)C(=O)N[C@@H](CCCNC(=N)N)C(=O)N[C@@H](CCC(N)=O)C(=O)N[C@@H](CC(C)C)C(=O)N[C@@H](CCCCN)C(=O)N[C@@H](CCCCN)C(=O)N1CCC[C@H]1C(=O)N[C@H](C(=O)N[C@@H](CCCNC(=N)N)C(N)=O)C(C)C)C(C)C)C(C)C [SAAP-148, reference compound] (Ac-LKRVWKRVFKLLKRYWRQLKKPVR-NH2) |  |  |  |  |  |  | 50% |  |  | 26.89 µg/mL |  |  |  |  |  |  |  |  | 
